Experiments:
[1] = target: T1, human adenosine A2A receptor (Homo sapiens, UniProt P29274); assay: [3H]-SCH-58261 binding assay on human adenosine A2A receptor membranes (SPA); conditions: recombinant receptor expressed in CHO cells, radioligand [3H]-SCH-58261 1 nM, Ki by Cheng-Prussoff equation from IC50; for Ki: read-out: hA2 (pKi) (converted)
T1 construct: expressed in transfected cells; host or cells: CHO cells, Semliki Forest virus expression system; washed membrane preparation
Protocol: Human Adenosine A2A Receptor
The human adenosine A2A receptor was recombinantly expressed in Chinese hamster ovary (CHO) cells using the semliki forest virus expression system. Cells were harvested, washed twice by centrifugation, homogenized and again washed by centrifugation. The final washed membrane pellet was suspended in a Tris (50 mM) buffer containing 120 mM NaCl, 5 mM KCl, 2 mM CaCl2 and 10 mM MgCl2 (pH 7.4) (buffer A). The [^3H]-SCH-58261 (Dionisotti et al., 1997, Br J Pharmacol 121, 353; 1 nM) binding assay was carried out in 96-well plates in the presence of 2.5 μg of membrane protein, 0.5 mg of Ysi-poly-1-lysine SPA beads and 0.1 U adenosine deaminase in a final volume of 200 μl of buffer A. Non-specific binding was defined using xanthine amine congener (XAC; 2 μM). Compounds were tested at 10 concentrations from 10 μM-0.3 nM. All assays were conducted in duplicate and repeated at least two times. Assay plates were incubated for 1 hour at room temperature before centrifugation and then bound ligand determined using a Packard Topcount scintillation counter. IC50 values were calculated using a non-linear curve fitting program and Ki values calculated using the Cheng-Prussoff equation.

T1 sequence (P29274 whole entry): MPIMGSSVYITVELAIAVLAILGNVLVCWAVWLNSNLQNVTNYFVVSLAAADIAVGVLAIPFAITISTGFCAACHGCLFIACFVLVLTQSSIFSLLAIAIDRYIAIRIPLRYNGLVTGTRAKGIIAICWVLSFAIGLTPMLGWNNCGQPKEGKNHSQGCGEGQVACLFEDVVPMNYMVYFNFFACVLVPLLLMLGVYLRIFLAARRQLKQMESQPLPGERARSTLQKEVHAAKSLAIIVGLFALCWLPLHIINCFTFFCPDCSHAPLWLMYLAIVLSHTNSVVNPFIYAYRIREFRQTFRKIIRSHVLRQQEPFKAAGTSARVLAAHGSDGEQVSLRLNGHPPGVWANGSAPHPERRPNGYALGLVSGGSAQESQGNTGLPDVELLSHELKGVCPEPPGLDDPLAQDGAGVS

Row | Structure (SMILES) | Ki [1] | melting point | hA2 (pKi) [1]
1 | COc1ccc(N2CCOCC2)c2sc(NC(=O)C[C@H]3CC[C@@H](OC(C)=O)C3)nc12 (single isomer, unassigned) [Example 1, (cis)-2-(3-Acetoxy-cyclopentyl)-N-(4-methoxy-7-morpholin-4-yl-benzothiazol-2-yl)-acetamide] | 10 nM | 171 to 172 °C | 
2 | COc1ccc(N2CCOCC2)c2sc(NC(=O)C[C@H]3CC[C@@H](OC(C)=O)C3)nc12 (single isomer, unassigned) [Example 2, (cis)-2-(3-Acetoxy-cyclopentyl)-N-(4-methoxy-7-morpholin-4-yl-benzothiazol-2-yl)-acetamide] | 6.31 nM | 172 to 173 °C | 
3 | COc1ccc(N2CCOCC2)c2sc(NC(=O)C[C@H]3CC[C@@H](O)C3)nc12 (single isomer, unassigned) [Example 3, (−)-(cis)-2-(3-Hydroxy-cyclopentyl)-N-(4-methoxy-7-morpholin-4-yl-benzothiazol-2-yl)-acetamide] | 6.31 nM | 168 to 171 °C | 
4 | COc1ccc(N2CCOCC2)c2sc(NC(=O)C[C@H]3CC[C@@H](O)CC3)nc12 [Example 5, (cis)-2-(4-Hydroxy-cyclohexyl)-N-(4-methoxy-7-morpholin-4-yl-benzothiazol-2-yl)-acetamide] | 6.31 nM | 212 to 216 °C | 
5 | COc1ccc(N2CCOCC2)c2sc(NC(=O)C[C@H]3CC[C@H](O)CC3)nc12 [Example 6, (trans)-2-(4-Hydroxy-cyclohexyl)-N-(4-methoxy-7-morpholin-4-yl-benzothiazol-2-yl)-acetamide] | 3.16 nM | 190 to 192 °C | 

Continued, values first:

Row | Ki [1] | melting point | hA2 (pKi) [1] | Structure (SMILES)
6 | 20 nM | 195 to 197 °C |  | COc1ccc(N2CCOCC2)c2sc(NC(=O)C(C)C34CCC(CC3)O4)nc12 (racemic) [Example 7, (rac)-N-(4-Methoxy-7-morpholin-4-yl-benzothiazol-2-yl)-2-(7-oxa-bicyclo[2.2.1]hept-1-yl)-propionamide]
7 |  | 167 to 170 °C | 8.2 | COc1ccc(N2CCOCC2)c2sc(NC(=O)C[C@H]3CC[C@@H](O)C3)nc12 (single isomer, unassigned) [Example 4, (+)-(cis)-2-(3-Hydroxy-cyclopentyl)-N-(4-methoxy-7-morpholin-4-yl-benzothiazol-2-yl)-acetamide]

— US7449461B2, “Benzathiazol-acetamides” (Hoffmann-La Roche Inc., priority 2004, dated 2008)
